Data reported in patent publication US20220064214A1, “NOVEL PEPTIDES AND USES THEREOF” (CENNA BIOSCIENCES INC., priority 2019, published 2022).
“Also recorded” adds a separate entry of the source. Like-named read-outs stand apart in the source and are kept apart here. Square brackets hold non-standard residues; d marks the D form. Peptide text beside a SMILES is read from it.

Key:
[1] = PK analysis of 8M2D in transgenic mice (APPSWE), plasma; details: mouse, in vivo, sc
From the text: Pharmacokinetics (PK) of 8M2D was further analyzed with various doses at days 1 and 13 in transgenic mice (APPSWE (B6; SJL 2576 Kha; Taconic)). See Hsiao et al., Correlative memory deficits, Aβ elevation, and amyloid plaques in transgenic mice. Science 274:99-102 (1996); and Haugabook et al., Reduction of Abeta accumulation in the Tg2576 animal model of Alzheimer's disease after oral administration of the phosphatidyl-inositol kinase inhibitor wortmannin. Faseb J 15:16-18 (2001).

Aβ40 = experiment: Efficacy in reducing Aβ40 in rat plasma (ELISA); format: in vivo; details: for reduction in Aβ40 / Percent Decrease in Aβ 40 in Rat Plasma: 10 mg/kg SC; for Percent Decrease in Aβ 40 in Rat Plasma: mean of 3 rats, negative = decrease
Description: Blood was collected through jugular vein cannulas, and the samples were collected into tubes with K2EDTA. After centrifuging at a temperature of 2 to 8° C. at 4,000×g for 5 minutes, the resulting plasma was split into equal aliquots, frozen, and stored at −60 to −80° C. One aliquot was for PK analysis and the other was for Aβ analysis (see Example 4).
Rats (n=3 per peptide) were administered with P8, 8M1D, or 8M2D (10 mg/kg) subcutaneously, and plasma were collected at 0, 6, 12, and 24 h after dosing and Aβ40 analysis was carried out by ELISA (Invitrogen).

[2] = Delivery to brain in transgenic mice (brain concentrations); format: in vivo; set-up: Brain Concentration / Brain Concentration, Mean: unit not given here
Description: Critical to the development of any therapeutic for diseases like AD is the requirement that it can be delivered to the brain. Delivery to brain and efficacy of P8 and 8M2D in reducing Aß was analyzed in the transgenic mice described in Section 6.3 above. […]

Aß = experiment: Efficacy in reducing Aß in APP transgenic mice (analysis in CSF and brain); format: in vivo; details: Tg mice over-expressing Aß
Description: Critical to the development of any therapeutic for diseases like AD is the requirement that it can be delivered to the brain. Delivery to brain and efficacy of P8 and 8M2D in reducing Aß was analyzed in the transgenic mice described in Section 6.3 above.
The maximum efficacious dose of 8M2D in Tg mice over-expressing Aß is at just over 50 mg/kg. This gives a 65% reduction in Aß 42. […] Experiments are performed to establish the minimum efficacious dose in Tg mice.

Aβ = experiment: Reduction of Aβ in retinal cells differentiated from iPSC derived from Alzheimer's disease patients; format: cell-based
From the text: The accumulation of Aβ in the retina was studied in this example. Retinal cells were differentiated from induced pluripotent stem (iPSC) cells derived from Alzheimer's disease patients.

- AUC(0-t) ([1]; 50 mg/kg, Day 1, 50 mg/kg, read-out: AUClast): 70.5 µg·h/mL
- CL/F ([1]; 50 mg/kg, Day 1, 50 mg/kg, read-out: Cl/F): 11.8 mL/min/kg
- Cmax ([1]; 50 mg/kg, Day 1, 50 mg/kg, read-out: Cmax): 111 µg/mL
- Tmax ([1]; 50 mg/kg, Day 1, 50 mg/kg, read-out: Tmax): 0.17 h
- Vd/F ([1]; 50 mg/kg, Day 1, 50 mg/kg, read-out: Vz/F): 7.59 L/kg
- half-life ([1]; 50 mg/kg, Day 1, 50 mg/kg, read-out: t1/2 (converted)): 7.4 h
- AUC(0-t) ([1]; 50 mg/kg, Day 13, 50 mg/kg, read-out: AUClast): 49.7 µg·h/mL
- CL/F ([1]; 50 mg/kg, Day 13, 50 mg/kg, read-out: Cl/F): 12.9 mL/min/kg
- Cmax ([1]; 50 mg/kg, Day 13, 50 mg/kg, read-out: Cmax): 73 µg/mL
- Tmax ([1]; 50 mg/kg, Day 13, 50 mg/kg, read-out: Tmax): 0.17 h
- Vd/F ([1]; 50 mg/kg, Day 13, 50 mg/kg, read-out: Vz/F): 148 L/kg
- half-life ([1]; 50 mg/kg, Day 13, 50 mg/kg, read-out: t1/2 (converted)): 130 h
- AUC(0-t) ([1]; 250 mg/kg, Day 1, 250 mg/kg, read-out: AUClast): 176 µg·h/mL
- CL/F ([1]; 250 mg/kg, Day 1, 250 mg/kg, read-out: Cl/F): 23.6 mL/min/kg
- Cmax ([1]; 250 mg/kg, Day 1, 250 mg/kg, read-out: Cmax): 207 µg/mL
- Tmax ([1]; 250 mg/kg, Day 1, 250 mg/kg, read-out: Tmax): 0.17 h
- Vd/F ([1]; 250 mg/kg, Day 1, 250 mg/kg, read-out: Vz/F): 5.84 L/kg
- half-life ([1]; 250 mg/kg, Day 1, 250 mg/kg, read-out: t1/2 (converted)): 2.9 h
- AUC(0-t) ([1]; 250 mg/kg, Day 1, Mean over the 10, 50 and 250 mg/kg doses (N 3), read-out: AUClast, Mean): 86.4 µg·h/mL
- CL/F ([1]; 250 mg/kg, Day 1, Mean over the 10, 50 and 250 mg/kg doses (N 3), read-out: Cl/F, Mean): 16.1 mL/min/kg
- Cmax ([1]; 250 mg/kg, Day 1, Mean over the 10, 50 and 250 mg/kg doses (N 3), read-out: Cmax, Mean): 111 µg/mL
- Tmax ([1]; 250 mg/kg, Day 1, Mean over the 10, 50 and 250 mg/kg doses (N 3), read-out: Tmax, Mean): 0.167 h
- Vd/F ([1]; 250 mg/kg, Day 1, Mean over the 10, 50 and 250 mg/kg doses (N 3), read-out: Vz/F, Mean): 7.42 L/kg
- half-life ([1]; 250 mg/kg, Day 1, Mean over the 10, 50 and 250 mg/kg doses (N 3), read-out: t1/2, Mean (converted)): 6.06 h
- AUC(0-t) ([1]; 250 mg/kg, Day 13, 250 mg/kg, read-out: AUClast): 290 µg·h/mL
- CL/F ([1]; 250 mg/kg, Day 13, 250 mg/kg, read-out: Cl/F): 13.5 mL/min/kg
- Cmax ([1]; 250 mg/kg, Day 13, 250 mg/kg, read-out: Cmax): 278 µg/mL
- Tmax ([1]; 250 mg/kg, Day 13, 250 mg/kg, read-out: Tmax): 0.17 h
- Vd/F ([1]; 250 mg/kg, Day 13, 250 mg/kg, read-out: Vz/F): 33.4 L/kg
- half-life ([1]; 250 mg/kg, Day 13, 250 mg/kg, read-out: t1/2 (converted)): 29 h
- AUC(0-t) ([1]; 250 mg/kg, Day 13, Mean over the 10, 50 and 250 mg/kg doses (N 3), read-out: AUClast, Mean): 117 µg·h/mL
- CL/F ([1]; 250 mg/kg, Day 13, Mean over the 10, 50 and 250 mg/kg doses (N 3), read-out: Cl/F, Mean): 13.5 mL/min/kg
- Cmax ([1]; 250 mg/kg, Day 13, Mean over the 10, 50 and 250 mg/kg doses (N 3), read-out: Cmax, Mean): 121 µg/mL
- Tmax ([1]; 250 mg/kg, Day 13, Mean over the 10, 50 and 250 mg/kg doses (N 3), read-out: Tmax, Mean): 0.167 h
- Vd/F ([1]; 250 mg/kg, Day 13, Mean over the 10, 50 and 250 mg/kg doses (N 3), read-out: Vz/F, Mean): 63.8 L/kg
- half-life ([1]; 250 mg/kg, Day 13, Mean over the 10, 50 and 250 mg/kg doses (N 3), read-out: t1/2, Mean (converted)): 56.5 h
- Brain Concentration ([2]; transgenic mice, SC, dose 10 mg/kg, individual animals): BQL
- Brain Concentration, Mean ([2]; transgenic mice, SC, dose 50 mg/kg, N 2): 9.06
- Brain Concentration, Mean ([2]; transgenic mice, SC, dose 250 mg/kg, N 5): 15.4
SMILES: CC(=O)N[C@H](CC(=O)O)C(=O)N[C@@H](CCC(=O)O)C(=O)N[C@@H](CCC(=O)O)C(=O)N[C@@H](CCC(=O)O)C(=O)N[C@@H](CC(=O)O)C(=O)N[C@@H](CCC(=O)O)C(=O)N[C@@H](CCC(=O)O)C(=O)N[C@@H](CC(C)C)C(N)=O [8M2D, Ac-dEEEDEEL-NH2] (Ac-[dD]EEEDEEL-NH2)
- reduction in Aβ40 (Aβ40; rat plasma, 12 hr post dosing): about 35%
- reduction in Aβ40 (Aβ40; rat plasma, 24 h post dosing): about 27%
- reduction of Aβ40 compared with the other peptides (in words) (Aβ40; rat plasma, SC): more potent than P8 and 8M1D; also recorded: more effectively than P8 and 8M1D
- Percent Decrease in Aβ 40 in Rat Plasma (Aβ40; 0 h): 0.00%
- Percent Decrease in Aβ 40 in Rat Plasma (Aβ40; 6 h): −26.62%
- Percent Decrease in Aβ 40 in Rat Plasma (Aβ40; 12 h): −35.27%
- Percent Decrease in Aβ 40 in Rat Plasma (Aβ40; 24 h): −27.36%
- delivery to the APPTg mouse brain (in words) ([2]; SC administration): in sufficient amounts to reduce Aß in the brain
- efficacy on increasing the dose 5× (in words) (Aß; SC): only a marginal increase in efficacy
- maximum efficacious dose (Aß; SC dosing): over 50 mg/kg
- reduction in Aß 42 (Aß; SC, at the maximum efficacious dose (just over 50 mg/kg)): 65%
- production of Aβ in retinal cells in the presence of the peptide (in words) (Aβ): reduced
